Measured values reported in the supplement of paper PMC10307832.

How the values were obtained:
Assay in all cases: relative viability (nuclei count vs DMSO), 5 days (fraction); higher = more cells survive
AZD6482 + Palbociclib = compound: Cc1cc([C@@H](C)Nc2ccccc2C(=O)O)c2nc(N3CCOCC3)cc(=O)n2c1 [AZD6482] + CC(=O)c1c(C)c2cnc(Nc3ccc(N4CCNCC4)cn3)nc2n(C2CCCC2)c1=O [Palbociclib] (partner 0.5 µM)
Outline: (§1)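 Dosing by pin tool came one day after lung cancer cell lines were seeded in 1536-well plates, using either one drug or a fixed anchor-drug dose plus five library-drug doses (not always all listed) in √10 steps. After 5 days, nuclei were counted on 4× images. Relative viability is treated-well nuclei count divided by vehicle-well nuclei count, and values are medians of duplicate plates.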

[1] = compound: COc1cc2nc(N3CCCN(C)CC3)nc(NC3CCN(Cc4ccccc4)CC3)c2cc1OC + CS(=O)(=O)CCNCc1ccc(-c2ccc3ncnc(Nc4ccc(OCc5cccc(F)c5)c(Cl)c4)c3c2)o1 [Lapatinib] (partner 2 µM)
Outline: as §1

AZD6482 + Phenformin = compound: Cc1cc([C@@H](C)Nc2ccccc2C(=O)O)c2nc(N3CCOCC3)cc(=O)n2c1 [AZD6482] + N=C(N)NC(=N)NCCc1ccccc1 [Phenformin] (partner 250 µM)
Outline: as §1

AZD6482 + Luminespib = compound: Cc1cc([C@@H](C)Nc2ccccc2C(=O)O)c2nc(N3CCOCC3)cc(=O)n2c1 [AZD6482] + CCNC(=O)c1noc(-c2cc(C(C)C)c(O)cc2O)c1-c1ccc(CN2CCOCC2)cc1 [Luminespib] (partner 0.01 µM)
Outline: as §1

Row | Cell Line | relative viability (AZD6482 + Palbociclib; first compound 0.08 µM) | relative viability (AZD6482 + Palbociclib; first compound 0.253 µM) | relative viability (AZD6482 + Palbociclib; first compound 0.8 µM) | relative viability (AZD6482 + Palbociclib; first compound 8 µM) | relative viability ([1]; first compound 0.2 µM) | relative viability ([1]; first compound 0.6325 µM) | relative viability ([1]; first compound 2 µM) | relative viability ([1]; first compound 6.325 µM) | relative viability (AZD6482 + Phenformin; first compound 0.08 µM) | relative viability (AZD6482 + Phenformin; first compound 0.253 µM) | relative viability (AZD6482 + Phenformin; first compound 0.8 µM) | relative viability (AZD6482 + Phenformin; first compound 2.53 µM) | relative viability (AZD6482 + Phenformin; first compound 8 µM) | relative viability (AZD6482 + Luminespib; first compound 0.08 µM) | relative viability (AZD6482 + Luminespib; first compound 0.253 µM) | relative viability (AZD6482 + Luminespib; first compound 0.8 µM) | relative viability (AZD6482 + Luminespib; first compound 2.53 µM) | relative viability (AZD6482 + Luminespib; first compound 8 µM) | relative viability (AZD6482 + Palbociclib; first compound 2.53 µM)
1 | NCI-H1648 | 0.313 | 0.275 | 0.265 | 0.242 | – | – | – | – | – | – | – | – | – | – | – | – | – | – | –
2 | SK-MES-1 | 0.282 | 0.293 | 0.295 | 0.301 | 0.476 | 0.433 | 0.539 | 0.483 | 0.612 | 0.75 | 0.611 | 0.357 | 0.406 | 0.416 | 0.556 | 0.313 | 0.269 | 0.304 | 0.282
3 | HCC-366 | 0.334 | 0.367 | 0.385 | 0.229 | 1.02 | 1.03 | 1.12 | 0.956 | 0.663 | 0.609 | 0.636 | 0.477 | 0.45 | – | – | – | – | – | 0.35
4 | 201T | 0.351 | 0.354 | 0.309 | 0.347 | 0.95 | 1.04 | 1.08 | 0.982 | 0.436 | 0.433 | 0.496 | 0.308 | 0.314 | 0.995 | 0.982 | 1.01 | 0.847 | 1.02 | 0.326
5 | HCC-827 | 0.437 | 0.504 | 0.435 | 0.229 | 0.181 | 0.196 | 0.198 | 0.193 | 0.45 | 0.345 | 0.381 | 0.288 | 0.301 | 0.601 | 0.478 | 0.293 | 0.27 | 0.196 | 0.378
6 | NCI-H647 | 0.305 | 0.293 | 0.309 | 0.195 | 1.16 | 0.967 | 1.11 | 0.417 | 0.417 | 0.473 | 0.399 | 0.262 | 0.324 | 0.167 | 0.121 | 0.147 | 0.193 | 0.146 | 0.241
7 | NCI-H2023 | 0.265 | 0.328 | 0.405 | 0.226 | 0.87 | 0.836 | 0.961 | 0.115 | 0.384 | 0.368 | 0.379 | 0.261 | 0.29 | 0.603 | 0.574 | 0.795 | 0.518 | 0.324 | 0.277
8 | NCI-H520 | 0.123 | 0.157 | 0.179 | 0.15 | 0.892 | 0.894 | 0.92 | 0.3 | 0.402 | 0.283 | 0.285 | 0.166 | 0.225 | 0.208 | 0.281 | 0.199 | 0.206 | 0.211 | 0.146
9 | RERF-LC-KJ | 0.961 | 0.981 | 1.03 | 0.808 | 0.832 | 0.863 | 0.875 | 0.829 | 0.424 | 0.401 | 0.368 | 0.394 | 0.292 | 1.16 | 1.29 | 1.27 | 0.978 | 0.987 | 0.838
10 | A-427 | 0.462 | 0.528 | 0.495 | 0.553 | 1.07 | 0.977 | 1.05 | 1 | 0.345 | 0.232 | 0.319 | – | 0.225 | 0.974 | 0.79 | 0.986 | – | 0.677 | 0.502
11 | NCI-H441 | 0.248 | 0.246 | 0.215 | 0.182 | – | – | – | – | 0.677 | 0.679 | 0.967 | – | 0.468 | 0.389 | 0.375 | 0.3 | – | 0.262 | –
12 | NCI-H1703 | – | – | – | – | 0.981 | 0.901 | 1.05 | 0.458 | – | – | – | – | – | – | – | – | – | – | –
13 | NCI-H1792 | 0.593 | 0.611 | 0.648 | 0.512 | 0.953 | 0.893 | 0.94 | 1.02 | 0.222 | 0.237 | 0.298 | – | 0.13 | 0.373 | 0.392 | 0.458 | 0.19 | 0.353 | 0.561
14 | Calu-6 | – | – | – | – | 1.02 | 0.985 | 1.19 | 0.985 | – | – | – | – | – | – | – | – | – | – | –
15 | SK-LU-1 | – | 0.346 | 0.376 | 0.387 | 0.818 | 0.754 | 1 | 0.839 | – | 0.454 | 0.502 | 0.347 | 0.237 | – | 0.189 | 0.203 | 0.145 | 0.168 | 0.315
16 | PC-3 [JPC-3] | 0.559 | 0.564 | 0.528 | 0.534 | 0.481 | 0.424 | 0.438 | 0.468 | 0.418 | 0.492 | 0.508 | 0.406 | 0.391 | 0.634 | 0.689 | 0.655 | 0.509 | 0.588 | 0.572
17 | EMC-BAC-2 | 0.494 | 0.491 | 0.518 | 0.429 | 0.908 | 0.881 | 0.914 | 0.891 | 0.489 | 0.445 | 0.493 | 0.352 | 0.44 | 1.01 | 1.05 | 1.18 | 0.805 | 0.787 | 0.46
18 | LK-2 | 0.732 | 0.698 | 0.688 | 0.342 | 0.983 | 0.996 | 1.14 | 0.909 | 0.405 | 0.382 | 0.257 | 0.338 | 0.184 | 0.231 | 0.187 | 0.229 | 0.177 | 0.167 | 0.54
19 | NCI-H2126 | 0.356 | 0.383 | 0.351 | 0.36 | 0.74 | 0.742 | 0.796 | 0.732 | 0.507 | 0.521 | 0.451 | 0.355 | 0.349 | 0.933 | 0.836 | 0.841 | 0.373 | 0.68 | 0.314
20 | NCI-H3122 | 0.192 | 0.198 | 0.168 | 0.154 | 1.07 | 1.01 | 1.01 | 1.01 | 0.385 | 0.381 | 0.371 | – | 0.412 | 0.094 | 0.0817 | 0.108 | 0.0814 | 0.0719 | 0.155
